Converted amounts (≈) assume the structure as drawn.
Tests used:
Assay type in all cases: cell-based
[1] = test system: Human malignant B-cell lymphoma cells; assay: In vitro antitumor test (trypan blue exclusion viable cell count), malignant B-cell lymphoma; settings: 72 h, three days exposure, read-out: LD50 (IC50), 50% growth-inhibitory dose
[2] = test system: Human breast cancer MRK-nu-1 cells; assay: In vitro antitumor test (trypan blue exclusion viable cell count), MRK-nu-1
Procedure: (§1) An appropriate amount of NFD was dissolved in DMSO to give a 1.0 mg/ml stock solution, which was diluted as necessary before use.
(§2) The following cells in the late logarithmic phase were harvested after treatment with trypsin (containing 0.25% trypsin and 0.02% EDTA; 37° C., 3 min) and used in the test: human lung adenocarcinoma cell lines A-549, VMRC-LCD and SK-LU-1, human lung squamous cell carcinoma Calu-1 cells, human colon adenocarcinoma WiDr cells, human prostate cancer LNCaP cells, human vaginal squamous cell carcinoma A-431 cells, human cervical carcinoma HeLa cells, human cholangiocarcinoma HuCC-T1 cells, mouse skin cancer melanoma B16 (M4) cells, human pancreatic carcinoma ASPC-1 cells, human neuroblastoma IMR-132 cells, human lung small cell carcinoma SCCH-194 cells, human uninary bladder carcinoma T24 cells, human renal cell carcinoma […] cells, human gastric cancer NUGC-2 cells, human thyroid carcinoma 8305C cells, human hepatoma HUH-7 cells, human ovarian carcinoma TYK-nu cells and human chorio carcinoma BeWo cells. […] These cells were plated onto a 96-well microplate at a density of 5-10×10^3 cells/cm^2 using DMEM or RPMI-1640 medium containing 10% fetal bovine serum and cultured for 24 hours in a conventional manner, after which a pre-determined amount of NFD dissolved in DMSO was added to each well. […]

[3] = test system: Human neuroblastoma IMR-132 cells; assay: In vitro antitumor test (trypan blue exclusion viable cell count), IMR-132
Procedure: as §1, §2

[4] = test system: Human ovarian carcinoma TYK-nu cells; assay: In vitro antitumor test (trypan blue exclusion viable cell count), TYK-nu
Procedure: as §1
as §2, with “cells. Suspension cultures of human breast cancer MRK-nu-1 cells, human malignant B-cell lymphoma cells and human chronic myelogenous leukemia K562 cells were used to harvest the cells to be used in the test.” for “cells.”, “well. Cultivation was continued, and the number of viable cells was counted after 24, 48 and 72 hours.” for “well.”
Growth inhibitory action and lethal activity of NFD on various types of malignant tumor cells and normal human cells listed above were evaluated by counting the number of viable cells in each well of the 96-well microplate. […]

[5] = test system: Human hepatoma HuH-7 cells; assay: In vitro antitumor test (trypan blue exclusion viable cell count), HuH-7
Procedure: as §1, §2

[6] = test system: Mouse melanoma B16 (M4) cells; assay: In vitro antitumor test (trypan blue exclusion viable cell count), B16 (M4)
Procedure: as §1, §2

[7] = test system: Human lung squamous cell carcinoma Calu-1 cells; assay: In vitro antitumor test (trypan blue exclusion viable cell count), Calu-1; settings: 72 h, three days exposure, read-out: LD50 (IC50), 50% growth-inhibitory dose
Procedure: as §1, §2

human lung cancer cells = assay: In vitro antitumor test, human lung cancer cells (FIGS. 1-4)
Procedure: as §1, §2

CC(O)c1cc2c(o1)C(=O)c1cccc(O)c1C2=O (stereo not drawn) [NFD, 2-(1-hydroxyethyl)-5-hydroxynaphtho[2,3-b]furan-4,9-dione]
IC50 [1]: 0.0056 µg/mL (≈ 0.0217 µM) | IC50 ([2]; 72 h, three days exposure, read-out: LD50 (IC50), 50% growth-inhibitory dose): 0.012 µg/mL (≈ 0.0465 µM) | IC (almost complete) ([2]; FIG. 20, read-out: concentration inhibiting growth almost completely): 0.033 µg/mL | IC50 ([3]; 72 h, IMR-132, three days exposure, read-out: LD50 (IC50), 50% growth-inhibitory dose): 0.01 µg/mL (≈ 0.0387 µM) | IC (almost complete) ([3]; FIG. 14, read-out: concentration inhibiting growth almost completely): 0.0447 µg/mL | concentration causing necrosis in almost all tumor cells ([4]; FIG. 22): ≥ 40 ng/mL | IC50 ([4]; Homo sapiens, 72 h, TYK-nu, three days exposure, read-out: LD50 (IC50), 50% growth-inhibitory dose): 0.017 µg/mL (≈ 0.0658 µM) | IC (almost complete) ([4]; Homo sapiens, FIG. 22, read-out: concentration inhibiting growth almost completely): 0.02 µg/mL | IC50 ([5]; 72 h, HuH-7, three days exposure, read-out: LD50 (IC50), 50% growth-inhibitory dose): 0.0055 µg/mL (≈ 0.0213 µM) | IC (almost complete) ([5]; Huh-7, FIG. 21, read-out: concentration inhibiting growth almost completely): 0.02 µg/mL | IC50 ([6]; 72 h, B16 (M4), three days exposure, read-out: LD50 (IC50), 50% growth-inhibitory dose): 0.0067 µg/mL (≈ 0.0259 µM) | IC (almost complete) ([6]; FIG. 10, read-out: concentration inhibiting growth almost completely): 0.0112 µg/mL | IC50 [7]: 0.017 µg/mL (≈ 0.0658 µM) | concentration causing necrosis in almost all tumor cells (human lung cancer cells): 33.5 to 55.4 ng/mL | IC (almost complete) (human lung cancer cells; Homo sapiens, read-out: concentration inhibiting growth almost completely): 0.0112 to 0.0168 µg/mL

Source: patent US5663197A, “2-(1-hydroxyethyl)-5-hydroxynaphtho[2,3-b]furan-4,9-dione and antitumor agents comprising this compound” (priority 1992, dated 1997)
